Test results taken from US12077503B2, “Substituted cyclic amides and their use as herbicides” (FMC CORPORATION, priority 2015, dated 2024).

Assays:
Format in all cases: in vivo
[1] = system: Galium (catchweed bedstraw, Galium aparine); test: Test A postemergence; conditions: Galium, post-emergence, 240 h, Postemergence, read-out: Galium plant response rating (0 to 100 scale)
How it was run: (§1)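 In a loam soil and sand blend, planted seeds got a preemergence directed soil spray, and young plants at the one- to two-leaf stage, 2–10 cm high, got a postemergence application; ~10 d greenhouse hold; injury rated visually, 0 = none, 100 = complete control.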

[2] = system: ragweed (common ragweed, Ambrosia elatior); test: Test A postemergence; conditions: Ambrosia artemisiifolia, post-emergence, 240 h, Postemergence, read-out: Ragweed plant response rating (0 to 100 scale)
How it was run: as §1

corn (Zea mays) = test: Test A postemergence; conditions: Zea mays, post-emergence, 240 h, Postemergence, read-out: Corn plant response rating (0 to 100 scale)
How it was run: as §1

[3] = system: wheat (Triticum aestivum); test: Test A postemergence; conditions: Triticum aestivum, post-emergence, 240 h, Postemergence, read-out: Wheat plant response rating (0 to 100 scale)
How it was run: as §1

[4] = system: pigweed (Amaranthus retroflexus); test: Test A postemergence; conditions: Amaranthus retroflexus, post-emergence, 240 h, Postemergence, read-out: Pigweed plant response rating (0 to 100 scale)
How it was run: as §1

Kochia (Kochia scoparia) [5] = test: Test A postemergence; conditions: Bassia scoparia, post-emergence, 240 h, Postemergence, read-out: Kochia plant response rating (0 to 100 scale)
How it was run: as §1

[6] = system: blackgrass (Alopecurus myosuroides); test: Test A postemergence; conditions: Alopecurus myosuroides, post-emergence, 240 h, Postemergence, read-out: Blackgrass plant response rating (0 to 100 scale)
How it was run: as §1

[7] = system: giant foxtail (Setaria faberii); test: Test A postemergence; conditions: Setaria faberi, post-emergence, 240 h, Postemergence, read-out: Foxtail, Giant plant response rating (0 to 100 scale)
How it was run: as §1

[8] = system: ryegrass, Italian (Italian ryegrass, Lolium multiflorum); test: Test A postemergence; conditions: Lolium multiflorum, post-emergence, 240 h, Postemergence, read-out: Ryegrass, Italian plant response rating (0 to 100 scale)
How it was run: as §1

[9] = system: barnyardgrass (Echinochloa crus-galli); test: Test A postemergence; conditions: Echinochloa crus-galli, post-emergence, 240 h, Postemergence
How it was run: as §1

[10] = system: ducksalad (Heteranthera limosa); test: Test B flooded paddy test; conditions: Heteranthera limosa, 250 g ai/ha, Flood; 0 to 100 scale where 0 is no effect and 100 is complete control; read-out: Ducksalad plant response rating
How it was run: (§2)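 Greenhouse paddy pots with 2-leaf stage plants received compound by direct addition to floodwater 3 cm deep, kept at that level. Scored visually at 13–15 d versus controls (0 no effect; 100 complete control).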

rice (Oryra sativa) = test: Test B flooded paddy test; conditions: Oryza sativa, 250 g ai/ha, Flood; 0 to 100 scale where 0 is no effect and 100 is complete control; read-out: Rice plant response rating
How it was run: as §2

[11] = system: sedge, umbrella (small-flower umbrella sedge, Cyperus difformis); test: Test B flooded paddy test; conditions: Cyperus difformis, 250 g ai/ha, Flood; 0 to 100 scale where 0 is no effect and 100 is complete control; read-out: Sedge, Umbrella plant response rating
How it was run: as §2

[12] = system: barnyardgrass (Echinochloa crus-galli); test: Test B flooded paddy test; conditions: Echinochloa crus-galli, 250 g ai/ha, Flood; 0 to 100 scale where 0 is no effect and 100 is complete control; read-out: Barnyardgrass plant response rating
How it was run: as §2

[13] = system: ragweed (common ragweed, Ambrosia elatior); test: Test A preemergence; conditions: Ambrosia artemisiifolia, pre-emergence, 240 h, 0 to 100 scale where 0 is no effect and 100 is complete control, read-out: Ragweed plant response rating
How it was run: as §1

[14] = system: pigweed (Amaranthus retroflexus); test: Test A preemergence; conditions: Amaranthus retroflexus, pre-emergence, 240 h, 0 to 100 scale where 0 is no effect and 100 is complete control, read-out: Pigweed plant response rating
Kochia (Kochia scoparia) [15] = test: Test A preemergence; conditions: Bassia scoparia, pre-emergence, 240 h, 0 to 100 scale where 0 is no effect and 100 is complete control, read-out: Kochia plant response rating
How it was run: as §1

[16] = system: giant foxtail (Setaria faberii); test: Test A preemergence; conditions: Setaria faberi, pre-emergence, 240 h, 0 to 100 scale where 0 is no effect and 100 is complete control, read-out: Foxtail, Giant plant response rating
How it was run: as §1

[17] = system: ryegrass, Italian (Italian ryegrass, Lolium multiflorum); test: Test A preemergence; conditions: Lolium multiflorum, pre-emergence, 240 h, 0 to 100 scale where 0 is no effect and 100 is complete control, read-out: Ryegrass, Italian plant response rating
How it was run: as §1

[18] = system: barnyardgrass (Echinochloa crus-galli); test: Test A preemergence; conditions: Echinochloa crus-galli, pre-emergence, 240 h, 0 to 100 scale where 0 is no effect and 100 is complete control, read-out: Barnyardgrass plant response rating
How it was run: as §1

[19] = 125 g ai/ha, visual rating about 10 d after treatment
[20] = 31 g ai/ha, 0 is no effect, 100 is complete control
[21] = 125 g ai/ha, preemergence, visual injury rating, approximately 10 d

CN1C[C@H](c2ccc(C(F)(F)F)cc2)[C@@H](C(=O)Nc2ccccc2-n2cccn2)C1=O [Compound 1283]
0%: pest or weed control at 125 g/ha [1, 19] | pest or weed control at 31 g/ha [1, 20] | pest or weed control at 125 g/ha [2, 19] | pest or weed control at 31 g/ha [2, 20] | plant injury at 125 g/ha (corn (Zea mays); [19]) | plant injury at 31 g/ha (corn (Zea mays); [20]) | plant injury at 125 g/ha [3, 19] | plant injury at 31 g/ha [3, 20] | pest or weed control at 125 g/ha [4, 19] | pest or weed control at 31 g/ha [4, 20] | pest or weed control at 125 g/ha (Kochia (Kochia scoparia) [5]; [19]) | pest or weed control at 31 g/ha (Kochia (Kochia scoparia) [5]; [20]) | pest or weed control at 125 g/ha [6, 19] | pest or weed control at 31 g/ha [6, 20] | pest or weed control at 125 g/ha [7, 19] | pest or weed control at 31 g/ha [7, 20] | pest or weed control at 125 g/ha [8, 19] | pest or weed control at 31 g/ha [8, 20] | pest or weed control at 125 g/ha ([9]; 125 g ai/ha, visual rating about 10 d after treatment, read-out: Barnyardgrass plant response rating (0 to 100 scale, 0 no effect, 100 complete control)) | pest or weed control at 31 g/ha ([9]; 31 g ai/ha, 0 is no effect, 100 is complete control, read-out: Barnyardgrass plant response rating (0 to 100 scale)) | pest or weed control at 250 g/ha [10] | pest or weed control at 250 g/ha (rice (Oryra sativa)) | pest or weed control at 250 g/ha [11] | pest or weed control at 250 g/ha [12] | pest or weed control at 31 g/ha ([13]; 31 g ai/ha, Preemergence) | pest or weed control at 125 g/ha [13, 21] | pest or weed control at 31 g/ha ([14]; 31 g ai/ha, Preemergence) | pest or weed control at 125 g/ha [14, 21] | pest or weed control at 31 g/ha (Kochia (Kochia scoparia) [15]; 31 g ai/ha, Preemergence) | pest or weed control at 125 g/ha (Kochia (Kochia scoparia) [15]; [21]) | pest or weed control at 31 g/ha ([16]; 31 g ai/ha, Preemergence) | pest or weed control at 125 g/ha [16, 21] | pest or weed control at 31 g/ha ([17]; 31 g ai/ha, Preemergence) | pest or weed control at 125 g/ha [17, 21] | pest or weed control at 31 g/ha ([18]; 31 g ai/ha, Preemergence) | pest or weed control at 125 g/ha [18, 21]
